Assay results from patent publication USRE39591E1, “6-O-substituted ketolides having antibacterial activity” (Abbott Laboratories, priority 1996, dated 2007).
≈ marks a conversion by molar mass, not a printed value.

Tested on: up to 32 different microorganisms
Test: in vitro antibacterial activity (MIC), agar dilution on Brain Heart Infusion (BHI) agar with Steers replicator
Assay type: cell-based
Details: unit assumed
Summary of the method: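 MIC read visually: lowest drug level with no growth, slight haze or sparsely isolated colonies on the inoculum spot relative to drug-free control. Serial aqueous compound dilutions in BHI agar, 1:100 inoculum (1:10 slow strains), 20 to 24 hours at 35°-37° C.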

CCC1OC(=O)C(C)C(=O)C(C)C(OC2OC(C)CC(N(C)C)C2O)C(C)(OCC#Cc2cnc3ccccc3c2)CC(C)C(=O)C(C)C2NC(=O)OC12C (stereo not drawn) [Example 247, Compound of Formula (IX): L is CO, T is NH, R is —CH2—C≡C-(3-quinolyl)]
MIC (organism code AA): 0.05 µg/mL | MIC (organism code BB): 0.05 µg/mL | MIC (organism code CC): > 100 µg/mL | MIC (organism code DD): 0.05 µg/mL | MIC (organism code EE): 0.05 µg/mL | MIC (organism code FF): 0.05 µg/mL | MIC (organism code GG): > 100 µg/mL | MIC (organism code HH): 0.05 µg/mL | MIC (organism code II): 0.02 µg/mL | MIC (organism code JJ): ≤ 0.005 µg/mL | MIC (organism code KK): 0.01 µg/mL | MIC (organism code LL): 0.01 µg/mL | MIC (organism code MM): 0.39 µg/mL | MIC (organism code NN): 0.1 µg/mL | MIC (organism code OO): 0.01 µg/mL | MIC (organism code PP): 0.02 µg/mL | MIC (organism code QQ): 25 µg/mL | MIC (organism code RR): 0.2 µg/mL | MIC (organism code SS): 25 µg/mL | MIC (organism code TT): > 100 µg/mL | MIC (organism code UU): 0.39 µg/mL | MIC (organism code VV): 0.01 µg/mL | MIC (organism code WW): 1 µg/mL | MIC (organism code XX): ≤ 0.004 µg/mL | MIC (organism code YY): ≤ 0.004 µg/mL | MIC (organism code ZZ): 4 µg/mL | MIC (organism code ZZA): 0.25 µg/mL

CC[C@H]1OC(=O)[C@H](C)C(=O)[C@H](C)[C@@H](O[C@@H]2O[C@H](C)C[C@H](N(C)C)[C@H]2O)[C@@](C)(OCC=Cc2cnc3ccc(C(=O)O)cc3c2)C[C@@H](C)C(=O)[C@H](C)[C@H]2NC(=O)O[C@@]21C [Example 214]
MIC (organism code AA): 6.2 µg/mL (≈ 7.65 µM) | MIC (organism code BB): 251 µg/mL (≈ 310 µM) | MIC (organism code CC): > 100 µg/mL | MIC (organism code DD): 12.5 µg/mL (≈ 15.4 µM) | MIC (organism code EE): 12.5 µg/mL (≈ 15.4 µM) | MIC (organism code FF): 12.5 µg/mL (≈ 15.4 µM) | MIC (organism code GG): > 100 µg/mL | MIC (organism code HH): 25 µg/mL (≈ 30.9 µM) | MIC (organism code II): 25 µg/mL (≈ 30.9 µM) | MIC (organism code JJ): 6.2 µg/mL (≈ 7.65 µM) | MIC (organism code KK): 3.1 µg/mL (≈ 3.83 µM) | MIC (organism code LL): 1.56 µg/mL (≈ 1.93 µM) | MIC (organism code MM): 12.5 µg/mL (≈ 15.4 µM) | MIC (organism code NN): 25 µg/mL (≈ 30.9 µM) | MIC (organism code OO): 12.5 µg/mL (≈ 15.4 µM) | MIC (organism code PP): 12.5 µg/mL (≈ 15.4 µM) | MIC (organism code QQ): > 100 µg/mL | MIC (organism code RR): 3.1 µg/mL (≈ 3.83 µM) | MIC (organism code SS): > 100 µg/mL | MIC (organism code TT): > 100 µg/mL | MIC (organism code UU): 100 µg/mL (≈ 123 µM) | MIC (organism code VV): 50 µg/mL (≈ 61.7 µM) | MIC (organism code WW): 64 µg/mL (≈ 79 µM) | MIC (organism code XX): 1 µg/mL (≈ 1.23 µM) | MIC (organism code YY): 1 µg/mL (≈ 1.23 µM) | MIC (organism code ZZ): > 128 µg/mL | MIC (organism code ZZA): 32 µg/mL (≈ 39.5 µM)

CC[C@H]1OC(=O)[C@H](C)C(=O)[C@H](C)[C@@H](O[C@@H]2O[C@H](C)C[C@H](N(C)C)[C@H]2O)[C@@](C)(OCC=Cc2cnc3ccccc3c2)C[C@@H](C)C(=O)[C@H](C)[C@H]2OC(=O)O[C@@]21C [Example 75, Compound of Formula (IX): L is CO, T is O, R is —CH2CH═CH-(3-quinolyl)]
MIC (Candida albicans CCH 442 (code TT)): 100 µg/mL | MIC (Enterococcus faecism ATCC 8043 (code II)): 0.1 µg/mL | MIC (Escherichia coli DC-2 (code SS)): > 100 µg/mL | MIC (Escherichia coli JUHL (code QQ)): 50 µg/mL | MIC (Escherichia coli SS (code RR)): 0.39 µg/mL | MIC (Haemophilis influenzae DILL AMP R (code WW)): 2 µg/mL | MIC (Micrococcus luteus ATCC 4698 (code PP)): 0.2 µg/mL | MIC (Micrococcus luteus ATCC 9341 (code OO)): 0.02 µg/mL | MIC (Mycobacterium smegmatis ATCC 114 (code UU)): 0.39 µg/mL | MIC (Nocardia Asteroides ATCC9970 (code VV)): 0.05 µg/mL | MIC (Staphylococcus aureus 1775 (code GG)): > 100 µg/mL | MIC (Staphylococcus aureus A5177 (code BB)): 0.1 µg/mL | MIC (Staphylococcus aureus A-5278 (code CC)): > 100 µg/mL | MIC (Staphylococcus aureus ATCC 6538P (code AA)): 0.1 µg/mL | MIC (Staphylococcus aureus CMX 553 (code FF)): 0.1 µg/mL | MIC (Staphylococcus aureus CMX 642A (code DD)): 0.1 µg/mL | MIC (Staphylococcus aureus NCTC10649M (code EE)): 0.1 µg/mL | MIC (Staphylococcus epidermidis 3519 (code HH)): 0.1 µg/mL | MIC (Streptococcus Pneumonia 5649 (code ZZA)): 0.5 µg/mL | MIC (Streptococcus Pneumonia 5979 (code ZZ)): 64 µg/mL | MIC (Streptococcus Pneumonia ATCC6303 (code XX)): 0.03 µg/mL | MIC (Streptococcus Pneumonia GYR 1171 (code YY)): 0.03 µg/mL | MIC (Streptococcus agalactiae CMX 508 (code KK)): 0.01 µg/mL | MIC (Streptococcus bovis A-5169 (code JJ)): < 0.005 µg/mL | MIC (Streptococcus pyogenes 930 (code MM)): 3.1 µg/mL | MIC (Streptococcus pyogenes EES61 (code LL)): 0.02 µg/mL | MIC (Streptococcus pyogenes PIU 2548 (code NN)): 0.1 µg/mL

CC[C@H]1OC(=O)[C@H](C)C(=O)[C@H](C)[C@@H](O[C@@H]2O[C@H](C)C[C@H](N(C)C)[C@H]2O)[C@@](C)(OCC=Cc2ccc3ncc(Br)cc3c2)C[C@@H](C)C(=O)[C@H](C)[C@H]2NC(=O)O[C@@]21C [Example 219, R is —CH2CH═CH-(3-bromo-6-quinolyl)]
MIC (organism code AA): 0.2 µg/mL (≈ 0.237 µM) | MIC (organism code BB): 0.2 µg/mL (≈ 0.237 µM) | MIC (organism code CC): 100 µg/mL (≈ 118 µM) | MIC (organism code DD): 0.2 µg/mL (≈ 0.237 µM) | MIC (organism code EE): 0.2 µg/mL (≈ 0.237 µM) | MIC (organism code FF): 0.2 µg/mL (≈ 0.237 µM) | MIC (organism code GG): 100 µg/mL (≈ 118 µM) | MIC (organism code HH): 0.2 µg/mL (≈ 0.237 µM) | MIC (organism code II): 0.05 µg/mL (≈ 0.0592 µM) | MIC (organism code JJ): ≤ 0.005 µg/mL | MIC (organism code KK): 0.02 µg/mL (≈ 0.0237 µM) | MIC (organism code LL): 0.02 µg/mL (≈ 0.0237 µM) | MIC (organism code MM): 3.1 µg/mL (≈ 3.67 µM) | MIC (organism code NN): 0.2 µg/mL (≈ 0.237 µM) | MIC (organism code OO): 0.05 µg/mL (≈ 0.0592 µM) | MIC (organism code PP): 0.2 µg/mL (≈ 0.237 µM) | MIC (organism code QQ): 100 µg/mL (≈ 118 µM) | MIC (organism code RR): 0.78 µg/mL (≈ 0.923 µM) | MIC (organism code SS): > 100 µg/mL | MIC (organism code TT): > 100 µg/mL | MIC (organism code UU): 0.39 µg/mL (≈ 0.462 µM) | MIC (organism code VV): 0.05 µg/mL (≈ 0.0592 µM) | MIC (organism code WW): 2 µg/mL (≈ 2.37 µM) | MIC (organism code XX): 0.03 µg/mL (≈ 0.0355 µM) | MIC (organism code YY): 0.03 µg/mL (≈ 0.0355 µM) | MIC (organism code ZZ): 2 µg/mL (≈ 2.37 µM) | MIC (organism code ZZA): 0.25 µg/mL (≈ 0.296 µM)

CCC1OC(=O)C(C)C(=O)C(C)C(OC2OC(C)CC(N(C)C)C2O)C(C)(OCC=Cc2cnc3ccc(NC(C)=O)cc3c2)CC(C)C(=O)C(C)C2NC(=O)OC12C (stereo not drawn) [Example 203]
MIC (organism code AA): 0.2 µg/mL (≈ 0.243 µM) | MIC (organism code BB): 0.39 µg/mL (≈ 0.474 µM) | MIC (organism code CC): > 100 µg/mL | MIC (organism code DD): 0.2 µg/mL (≈ 0.243 µM) | MIC (organism code EE): 0.2 µg/mL (≈ 0.243 µM) | MIC (organism code FF): 0.39 µg/mL (≈ 0.474 µM) | MIC (organism code GG): > 100 µg/mL | MIC (organism code HH): 0.2 µg/mL (≈ 0.243 µM) | MIC (organism code II): 0.2 µg/mL (≈ 0.243 µM) | MIC (organism code JJ): ≤ 0.005 µg/mL | MIC (organism code KK): 0.01 µg/mL (≈ 0.0122 µM) | MIC (organism code LL): 0.01 µg/mL (≈ 0.0122 µM) | MIC (organism code MM): 1.56 µg/mL (≈ 1.9 µM) | MIC (organism code NN): 0.39 µg/mL (≈ 0.474 µM) | MIC (organism code OO): 0.02 µg/mL (≈ 0.0243 µM) | MIC (organism code PP): 0.39 µg/mL (≈ 0.474 µM) | MIC (organism code QQ): 100 µg/mL (≈ 122 µM) | MIC (organism code RR): 0.39 µg/mL (≈ 0.474 µM) | MIC (organism code SS): 100 µg/mL (≈ 122 µM) | MIC (organism code TT): > 100 µg/mL | MIC (organism code UU): 6.2 µg/mL (≈ 7.53 µM) | MIC (organism code VV): 0.39 µg/mL (≈ 0.474 µM) | MIC (organism code WW): 4 µg/mL (≈ 4.86 µM) | MIC (organism code XX): 0.03 µg/mL (≈ 0.0365 µM) | MIC (organism code YY): 0.03 µg/mL (≈ 0.0365 µM) | MIC (organism code ZZ): 16 µg/mL (≈ 19.4 µM) | MIC (organism code ZZA): 2 µg/mL (≈ 2.43 µM)
